Test results: patent US8343760B2, “p53 activator peptides” (University of Maryland, Baltimore, priority 2008, dated 2013)
Where a SMILES comes first, the peptide text is derived from it. Bridges are numbered along the chain shown (N, C = ends).

Assays:
p53 mutated SW480 cells = assay: Tumor cell killing, MTS OD and Trypan blue cell count, SW480; conditions: SW480, added daily for three days
Method: (§1) Nutlin-3, a known small molecule inhibitor of the p53-MDM2 interaction, was given at 10 μg/ml as a positive control. Briefly, HCT116 cells (10,000/well) were plated overnight in McCoy's 5A modified medium (1×) supplemented with 1% pen-strep and 10% heat inactivated FBS. SW480 cells (10,000/well) were plated overnight in DMEM 1× medium, 1% pen-strep and 10% heat inactivated FBS (all reagents were from GIBCO). Cells were treated the next day with the indicated compound and then OD and cell count assessed after 3 days (left column) or peptides were added every day for three day and then OD and cell count were assessed (right column). OD was measured with the MTS kit (Cell titer 96 aqueous non-radioactive cell proliferation assay, Promega). Trypan blue incorporation was used to determine number of cells alive and dead.

[1] = system: p53 wild type HCT116 cells; assay: Tumor cell killing, MTS OD and Trypan blue cell count, HCT116; conditions: for reduction in HCT116 cell count: HCT116, added daily for three days; for reduction in cell viability as measured by MTS OD / reduction in cell number (Trypan blue cell count): HCT116, single dose, peptides 100 μg/ml, Nutlin-3 10 μg/ml; for reduction in cell viability as measured by MTS OD: after 3 days; for reduction in cell number (Trypan blue cell count): assessed after 3 days
Method: as §1

synMDM2 = target: T1, synMDM2 (Homo sapiens, UniProt Q00987); assay: Trp fluorescence spectroscopy on addition of synMDM2; type: binding
T1 construct: synthetic MDM2—comprising amino acids 25-109 of the full length MDM2 protein; made in house; host or cells: chemical synthesis (no expression host)
T1 sequence (Q00987 25-109): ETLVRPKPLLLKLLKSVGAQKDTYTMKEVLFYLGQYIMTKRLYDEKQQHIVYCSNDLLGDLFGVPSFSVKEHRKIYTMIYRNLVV
Excerpt: Stoppin-1 was characterized using CD and fluorescence spectroscopy. […] The CD results are entirely consistent with the known structural features of BmBKTx1. As is the case with ^(15-29)p53, the only Trp residue engineered into stoppin-1 is fully solvent exposed in aqueous solution (buffer) as evidenced by the Trp fluorescence maximum (356 nm).
Stoppin-1 was derivatived by making five additional substitutions in its C-terminal region, resulting in a heavily cationic new peptide termed stoppin-2 of the following amino acid sequence: […] (SEQ ID NO:2). Specifically, Ser^18, Ser^19, Ile^23, Asn^24, and Ser^25 (BmBKTx1 numbering) were replaced with Arg, generating a miniprotein with eight cationic residues (including three existing Lys residues) clustered in the C-terminal β-hairpin region. Stoppin-2 was then chemically synthesized and oxidatively folded using procedures previously described herein. The correct folding of stoppin-2 was verified by disulfide mapping using trypsin/CNBr fragmentation coupled with LC-MS analysis. The interaction of stoppin-2 with MDM2/MDMX was characterized using fluorescence spectroscopy.

[2] = target: T2, synMDMX (synthetic MDMX, amino acids 24-108 of the full length MDMX protein) (Homo sapiens, UniProt O15151); assay: SPR-based competition binding assay, synMDMX vs immobilized 15-29p53; conditions: stoppin-1 relative to 15-29p53
T2 construct: synthetic MDMX—comprising amino acids 24-108 of the full length MDMX protein; made in house; host or cells: chemical synthesis (no expression host)
T2 sequence (O15151 24-108): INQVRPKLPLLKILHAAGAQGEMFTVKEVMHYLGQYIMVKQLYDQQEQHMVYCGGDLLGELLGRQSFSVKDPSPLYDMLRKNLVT
Method: Each curve is the mean of four independent measurements at 25° C. in 10 mM HEPES, 150 mM NaCl, 0.005% surfactant P20, pH 7.4. […] Specifically, ^(15-29)p53 was immobilized on a CM5 sensor chip for kinectic analysis of a fixed concentration of ^synMDM2 (50 nM) or ^synMDMX (100 nM) pre-incubated with varying concentrations of stoppin-1 at room temperature. ^(15-29)p53 was used as a control in the competition binding assay. […] To facilitate comparison, several other compounds were included in the panel: ^(15-29)p53, ^(17-28)p53, and Nutlin-3 (a racemic mixture of Nutlin-3a and Nutlin-3b).

Molecule	effect against SW480 (p53 mutated SW480 cells)	reduction in HCT116 cell count [1]	reduction in cell viability as measured by MTS OD [1]	reduction in cell number (Trypan blue cell count) [1]	shift of Trp fluorescence maximum on addition of synMDM2 (from-to) (synMDM2)	fold lower binding affinity for synMDMX than 15-29p53 [2]	shift of Trp fluorescence on addition of synMDM2 (synMDM2; from 356 nm to 328 nm)
COc1ccc(C2=N[C@@H](c3ccc(Cl)cc3)[C@@H](c3ccc(Cl)cc3)N2C(=O)N2CCNC(=O)C2)c(OC(C)C)c1 [Nutlin-3, reference compound]	ineffective	~90%	reduction in HTC cell viability	over 80%			
CYSFDCLWKCLAMGFRRGKCRRRKCKC [stoppin-2]	ineffective	killed the cells quantitatively	reduction in HTC cell viability	~70%	356 nm to 328 nm		
CC[C@H](C)[C@@H]1NC(=O)[C@@H]2CSSC[C@H](N)C(=O)N[C@@H](Cc3ccc(O)cc3)C(=O)N[C@@H](CO)C(=O)N[C@@H](Cc3ccccc3)C(=O)N[C@@H](CC(=O)O)C(=O)N[C@H]3CSSC[C@H](NC(=O)[C@H](CCCCN)NC(=O)[C@H](CO)NC(=O)[C@H](CC(N)=O)NC1=O)C(=O)N[C@@H](CCCCN)C(=O)N[C@H](C(=O)O)CSSC[C@H](NC(=O)[C@H](CCCCN)NC(=O)[C@H](Cc1c[nH]c4ccccc14)NC(=O)[C@H](CC(C)C)NC3=O)C(=O)N[C@@H](CC(C)C)C(=O)N[C@@H](C)C(=O)N[C@@H](CCSC)C(=O)NCC(=O)N[C@@H](Cc1ccccc1)C(=O)N[C@@H](CO)C(=O)N[C@@H](CO)C(=O)NCC(=O)N[C@@H](CCCCN)C(=O)N2 [stoppin-1] (H-CYSFDCLWKCLAMGFSSGKCINSKCKC-OH; disulfide 1-20, 6-25, 10-27)	ineffective			minimal	356 nm to 328 nm	approximately 4 fold	28 nm
